Drawing on US10138244B2, “Triazolopyrazinone derivative useful as a human PDE1 inhibitor” (Eli Lilly and Company, priority 2016, dated 2018), this text covers IC50 for one compound.

Format in all cases: biochemical
The target in assay [1] is T1, human PDE1A (Homo sapiens, UniProt P54750).
T1 construct: encoding full-length human PDE1A (NP_001003683.1); HIS (N); made in house; host or cells: Sf9 (baculovirus, pFastBac1)
Description: Ca2+-calmodulin dependent PDE enzyme assay (SPA), PDE1A. Conditions: human PDE1A 0.25 nM, [3H]cAMP 47 nM, calmodulin 6 U/ml; read-out: IC50 (nM) PDE 1A. An excerpt: (§1) The nucleotide sequences encoding full-length human PDE1A (NP_001003683.1), PDE1C (NP_005011.1), PDE5A (NP_001074.2), PDE7B (NP_061818.1) and PDE9A (NP_002597.1) are inserted into pFastBac1 (Invitrogen) vector with an N-terminal HIS tag. The nucleotide sequences encoding full-length human PDE4D (NP_006194.2) and catalytic domain (residue 641-1141) of PDE3A (NP_000912.3) are inserted into pFastBac1 (Invitrogen) vector with a C-terminal HIS tag. The nucleotide sequences encoding full-length human PDE8A (NP_002596.1) and PDE11A (AAI12394.1) are inserted into pFastBac1 (Invitrogen) vector with an N-terminal Flag tag. The nucleotide sequences encoding full-length human PDE10A (AAD32595.1) are inserted into pFastBac1 (Invitrogen) vector with a C-terminal Flag-His tag. The nucleotide sequences encoding full-length human PDE6A (NP_000431.2) and PDE6B (AAH00249.1) are inserted into pFastBacDual (Invitrogen) vector with an N-terminal HIS tag and N-terminal Flag tag, respectively, for production of PDE6A/6B dimer. […]
(§2) All 3′, 5′ cyclic nucleotide phosphodiesterase (PDE) enzyme activities are measured with a radiometric enzyme assay based on SPA detection system (scintillation proximity assay). […] Samples are read 12 hours later in a MICROBETA™ TRILUX® Counter. […] IC50 values are calculated by plotting the normalized data vs. log [compound] and fitting the data using a four parameter logistic equation. […]

For assay [2], the target named is T2, human PDE1B (Homo sapiens, UniProt Q01064).
T2 construct: encoding full-length human PDE1B (NP_000915.1); HIS (C); made in house; host or cells: Sf9 (pIEX4)
Description: Ca2+-calmodulin dependent PDE enzyme assay (SPA), PDE1B. As to conditions: human PDE1B 0.074 nM, [3H]cAMP 47 nM, calmodulin 6 U/ml; read-out: IC50 (nM) PDE 1B.
Description: as §1, §2

For assay [3], the target named is T3, human PDE1C (Homo sapiens, UniProt Q14123).
T3 construct: full-length human PDE1A (NP_001003683.1), PDE1C (NP_005011.1); HIS (N); made in house; host or cells: Sf9 (baculovirus, pFastBac1)
Description: Ca2+-calmodulin dependent PDE enzyme assay (SPA), PDE1C. As to conditions: human PDE1C 0.0012 nM, [3H]cAMP 47 nM, calmodulin 6 U/ml; read-out: IC50 (nM) PDE 1C.
Description: as §1, §2

For assay [4], the target named is T4, human PDE3A (catalytic domain) (Homo sapiens, UniProt Q14432).
T4 construct: catalytic domain (residue 641-1141) of PDE3A (NP_000912.3); HIS (C); made in house; host or cells: Sf9 (baculovirus, pFastBac1)
As to the kind of experiment: PDE enzyme assay using [3H]cAMP as substrate (SPA), PDE3A. As to conditions: human PDE3A catalytic domain 0.008 nM, [3H]cAMP 47 nM.
Description: as §1, with “tag.” for “tag. The nucleotide sequences encoding full-length human PDE6A (NP_000431.2) and PDE6B (AAH00249.1) are inserted into pFastBacDual (Invitrogen) vector with an N-terminal HIS tag and N-terminal Flag tag, respectively, for production of PDE6A/6B dimer.”
(§3) All 3′, 5′ cyclic nucleotide phosphodiesterase (PDE) enzyme activities are measured with a radiometric enzyme assay based on SPA detection system (scintillation proximity assay). […] Samples are read 12 hours later in a MICROBETA™ TRILUX® Counter. […] IC50 values are calculated by plotting the normalized data vs. log [compound] and fitting the data using a four parameter logistic equation.
(§4) The following phosphodiesterase activities are measured using [^3H]cAMP as reaction substrate: human PDE3A (catalytic domain), human PDE4D, human PDE7B and human PDE8A. […]

For assay [5], the target named is T5, human PDE4D (Homo sapiens, UniProt Q08499).
T5 construct: encoding full-length human PDE4D (NP_006194.2); HIS (C); made in house; host or cells: Sf9 (baculovirus, pFastBac1)
As to the kind of experiment: PDE enzyme assay using [3H]cAMP as substrate (SPA), PDE4D. As to conditions: human PDE4D 0.021 nM, [3H]cAMP 47 nM.
Description: as §1, with “tag.” for “tag. The nucleotide sequences encoding full-length human PDE6A (NP_000431.2) and PDE6B (AAH00249.1) are inserted into pFastBacDual (Invitrogen) vector with an N-terminal HIS tag and N-terminal Flag tag, respectively, for production of PDE6A/6B dimer.”
as §3, §4

Assay [6] deals with T6, human PDE7B (Homo sapiens, UniProt Q9NP56).
T6 construct: full-length human PDE1A (NP_001003683.1), PDE1C (NP_005011.1), PDE5A (NP_001074.2), PDE7B (NP_061818.1); HIS (N); made in house; host or cells: Sf9 (baculovirus, pFastBac1)
As to the kind of experiment: PDE enzyme assay using [3H]cAMP as substrate (SPA), PDE7B. As to conditions: human PDE7B 0.5 nM, [3H]cAMP 47 nM.
Description: as §1, with “tag.” for “tag. The nucleotide sequences encoding full-length human PDE6A (NP_000431.2) and PDE6B (AAH00249.1) are inserted into pFastBacDual (Invitrogen) vector with an N-terminal HIS tag and N-terminal Flag tag, respectively, for production of PDE6A/6B dimer.”
as §3, §4

In assay [7] the target is T7, human PDE8A (Homo sapiens, UniProt O60658).
T7 construct: encoding full-length human PDE8A (NP_002596.1); Flag (N); made in house; host or cells: Sf9 (baculovirus, pFastBac1)
Description: PDE enzyme assay using [3H]cAMP as substrate (SPA), PDE8A. Conditions: human PDE8A 0.06 nM, [3H]cAMP 47 nM.
Description: as §1, with “tag.” for “tag. The nucleotide sequences encoding full-length human PDE6A (NP_000431.2) and PDE6B (AAH00249.1) are inserted into pFastBacDual (Invitrogen) vector with an N-terminal HIS tag and N-terminal Flag tag, respectively, for production of PDE6A/6B dimer.”
as §3, §4

Assay [8] concerns the target T8, human PDE2A (Homo sapiens, UniProt O00408).
T8 construct: full-length human PDE1B (NP_000915.1) and PDE2A (NP_002590.1); HIS (C); made in house; host or cells: Sf9 (pIEX4)
As to the kind of experiment: PDE enzyme assay using [3H]cGMP as substrate (SPA), PDE2A. As to conditions: human PDE2A 0.2 nM, [3H]cGMP 80 nM.
Description: as §1, with “tag.” for “tag. The nucleotide sequences encoding full-length human PDE6A (NP_000431.2) and PDE6B (AAH00249.1) are inserted into pFastBacDual (Invitrogen) vector with an N-terminal HIS tag and N-terminal Flag tag, respectively, for production of PDE6A/6B dimer.”
as §3
(§5) The following phosphodiesterase activities are measured using [^3H]cGMP as reaction substrate: human PDE2A, human PDE5A, human PDE6A/6B, human PDE9A, human PDE10A and human PDE11A. […]

The target in assay [9] is T9, human PDE5A (Homo sapiens, UniProt O76074).
T9 construct: full-length human PDE1A (NP_001003683.1), PDE1C (NP_005011.1), PDE5A (NP_001074.2); HIS (N); made in house; host or cells: Sf9 (baculovirus, pFastBac1)
As to the kind of experiment: PDE enzyme assay using [3H]cGMP as substrate (SPA), PDE5A. Conditions: human PDE5A 0.002 nM, [3H]cGMP 80 nM.
Description: as §1, with “tag.” for “tag. The nucleotide sequences encoding full-length human PDE6A (NP_000431.2) and PDE6B (AAH00249.1) are inserted into pFastBacDual (Invitrogen) vector with an N-terminal HIS tag and N-terminal Flag tag, respectively, for production of PDE6A/6B dimer.”
as §3, §5

In assay [10] the target is T10, human PDE6A/6B (Homo sapiens, UniProt P16499+P35913).
T10 construct: encoding full-length human PDE6A (NP_000431.2) and PDE6B (AAH00249.1); HIS (N); Flag (N); made in house; host or cells: Sf9 (baculovirus, pFastBacDual)
As to the kind of experiment: PDE enzyme assay using [3H]cGMP as substrate (SPA), PDE6A/6B dimer. As to conditions: human PDE6AB dimer 5 nM, [3H]cGMP 80 nM; read-out: IC50 (nM) PDE 6AB.
Description: as §1, with “tag.” for “tag. The nucleotide sequences encoding full-length human PDE6A (NP_000431.2) and PDE6B (AAH00249.1) are inserted into pFastBacDual (Invitrogen) vector with an N-terminal HIS tag and N-terminal Flag tag, respectively, for production of PDE6A/6B dimer.”
as §3, §5

Assay [11] addresses T11, human PDE9A (Homo sapiens, UniProt O76083).
T11 construct: full-length human PDE1A (NP_001003683.1), PDE1C (NP_005011.1), PDE5A (NP_001074.2), PDE7B (NP_061818.1) and PDE9A (NP_002597.1); HIS (N); made in house; host or cells: Sf9 (baculovirus, pFastBac1)
Description: PDE enzyme assay using [3H]cGMP as substrate (SPA), PDE9A. Conditions: human PDE9A 1 nM, [3H]cGMP 20 nM.
Description: as §1, with “tag.” for “tag. The nucleotide sequences encoding full-length human PDE6A (NP_000431.2) and PDE6B (AAH00249.1) are inserted into pFastBacDual (Invitrogen) vector with an N-terminal HIS tag and N-terminal Flag tag, respectively, for production of PDE6A/6B dimer.”
as §3, §5

Assay [12] deals with T12, human PDE10A (Homo sapiens, UniProt Q9Y233).
T12 construct: encoding full-length human PDE10A (AAD32595.1); Flag-His (C); made in house; host or cells: Sf9 (baculovirus, pFastBac1)
As to the kind of experiment: PDE enzyme assay using [3H]cGMP as substrate (SPA), PDE10A. As to conditions: human PDE10A 0.03 nM, [3H]cGMP 80 nM.
Description: as §1, with “tag.” for “tag. The nucleotide sequences encoding full-length human PDE6A (NP_000431.2) and PDE6B (AAH00249.1) are inserted into pFastBacDual (Invitrogen) vector with an N-terminal HIS tag and N-terminal Flag tag, respectively, for production of PDE6A/6B dimer.”
as §3, §5

The target of assay [13] is T13, human PDE11A (Homo sapiens, UniProt Q9HCR9).
T13 construct: full-length human PDE8A (NP_002596.1) and PDE11A (AAI12394.1); Flag (N); made in house; host or cells: Sf9 (baculovirus, pFastBac1)
Description: PDE enzyme assay using [3H]cGMP as substrate (SPA), PDE11A. Conditions: human PDE11A 0.03 nM, [3H]cGMP 80 nM.
Description: as §1, with “tag.” for “tag. The nucleotide sequences encoding full-length human PDE6A (NP_000431.2) and PDE6B (AAH00249.1) are inserted into pFastBacDual (Invitrogen) vector with an N-terminal HIS tag and N-terminal Flag tag, respectively, for production of PDE6A/6B dimer.”
as §3, §5

Where only a bound is given, the exact number is not on record here.

T5 sequence (Q08499 1-673 isoform Q08499-2): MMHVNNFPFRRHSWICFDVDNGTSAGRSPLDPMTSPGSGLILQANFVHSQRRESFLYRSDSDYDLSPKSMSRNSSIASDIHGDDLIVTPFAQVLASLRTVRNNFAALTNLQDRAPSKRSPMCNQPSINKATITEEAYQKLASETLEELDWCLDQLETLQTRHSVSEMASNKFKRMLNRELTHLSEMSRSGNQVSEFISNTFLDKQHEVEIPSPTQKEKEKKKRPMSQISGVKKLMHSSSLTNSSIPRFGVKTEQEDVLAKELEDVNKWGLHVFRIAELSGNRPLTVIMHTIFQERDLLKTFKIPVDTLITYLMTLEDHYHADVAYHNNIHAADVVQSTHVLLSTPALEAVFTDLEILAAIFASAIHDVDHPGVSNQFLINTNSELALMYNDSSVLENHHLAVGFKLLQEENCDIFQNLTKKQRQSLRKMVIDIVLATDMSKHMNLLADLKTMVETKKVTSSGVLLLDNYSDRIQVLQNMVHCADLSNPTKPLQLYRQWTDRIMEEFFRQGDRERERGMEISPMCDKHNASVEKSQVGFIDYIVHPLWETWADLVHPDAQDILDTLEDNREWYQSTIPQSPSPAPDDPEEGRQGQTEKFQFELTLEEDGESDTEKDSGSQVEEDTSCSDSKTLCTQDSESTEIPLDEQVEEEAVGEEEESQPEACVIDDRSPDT
T6 sequence (Q9NP56 whole entry): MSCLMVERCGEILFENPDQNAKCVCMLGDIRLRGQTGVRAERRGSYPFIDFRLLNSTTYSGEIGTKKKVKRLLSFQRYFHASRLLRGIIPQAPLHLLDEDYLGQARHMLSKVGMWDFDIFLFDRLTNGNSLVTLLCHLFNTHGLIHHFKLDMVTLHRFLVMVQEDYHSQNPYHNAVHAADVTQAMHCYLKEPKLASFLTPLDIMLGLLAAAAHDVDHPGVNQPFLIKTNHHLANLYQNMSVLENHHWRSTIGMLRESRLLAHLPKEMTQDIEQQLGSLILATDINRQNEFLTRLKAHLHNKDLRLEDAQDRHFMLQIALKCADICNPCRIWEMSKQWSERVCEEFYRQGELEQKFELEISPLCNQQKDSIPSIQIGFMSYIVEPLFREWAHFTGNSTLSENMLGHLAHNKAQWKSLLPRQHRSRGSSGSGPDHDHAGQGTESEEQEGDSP
T11 sequence (O76083 whole entry): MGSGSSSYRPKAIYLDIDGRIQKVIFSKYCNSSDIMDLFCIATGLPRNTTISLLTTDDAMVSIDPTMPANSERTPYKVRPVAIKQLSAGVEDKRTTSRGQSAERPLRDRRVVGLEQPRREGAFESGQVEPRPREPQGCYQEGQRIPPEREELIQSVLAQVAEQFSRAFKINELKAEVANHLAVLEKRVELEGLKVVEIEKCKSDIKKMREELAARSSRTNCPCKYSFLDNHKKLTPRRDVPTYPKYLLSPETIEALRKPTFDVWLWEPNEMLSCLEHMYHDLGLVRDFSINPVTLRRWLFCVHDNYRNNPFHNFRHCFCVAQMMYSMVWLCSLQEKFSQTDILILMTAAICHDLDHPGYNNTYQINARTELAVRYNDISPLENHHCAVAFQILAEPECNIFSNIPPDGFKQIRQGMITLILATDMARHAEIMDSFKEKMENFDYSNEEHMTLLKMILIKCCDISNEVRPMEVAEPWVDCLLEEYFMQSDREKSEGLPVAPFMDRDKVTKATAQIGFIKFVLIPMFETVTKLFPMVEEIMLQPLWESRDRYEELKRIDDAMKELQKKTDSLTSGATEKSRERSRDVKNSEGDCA
T10 sequence (P16499 whole entry): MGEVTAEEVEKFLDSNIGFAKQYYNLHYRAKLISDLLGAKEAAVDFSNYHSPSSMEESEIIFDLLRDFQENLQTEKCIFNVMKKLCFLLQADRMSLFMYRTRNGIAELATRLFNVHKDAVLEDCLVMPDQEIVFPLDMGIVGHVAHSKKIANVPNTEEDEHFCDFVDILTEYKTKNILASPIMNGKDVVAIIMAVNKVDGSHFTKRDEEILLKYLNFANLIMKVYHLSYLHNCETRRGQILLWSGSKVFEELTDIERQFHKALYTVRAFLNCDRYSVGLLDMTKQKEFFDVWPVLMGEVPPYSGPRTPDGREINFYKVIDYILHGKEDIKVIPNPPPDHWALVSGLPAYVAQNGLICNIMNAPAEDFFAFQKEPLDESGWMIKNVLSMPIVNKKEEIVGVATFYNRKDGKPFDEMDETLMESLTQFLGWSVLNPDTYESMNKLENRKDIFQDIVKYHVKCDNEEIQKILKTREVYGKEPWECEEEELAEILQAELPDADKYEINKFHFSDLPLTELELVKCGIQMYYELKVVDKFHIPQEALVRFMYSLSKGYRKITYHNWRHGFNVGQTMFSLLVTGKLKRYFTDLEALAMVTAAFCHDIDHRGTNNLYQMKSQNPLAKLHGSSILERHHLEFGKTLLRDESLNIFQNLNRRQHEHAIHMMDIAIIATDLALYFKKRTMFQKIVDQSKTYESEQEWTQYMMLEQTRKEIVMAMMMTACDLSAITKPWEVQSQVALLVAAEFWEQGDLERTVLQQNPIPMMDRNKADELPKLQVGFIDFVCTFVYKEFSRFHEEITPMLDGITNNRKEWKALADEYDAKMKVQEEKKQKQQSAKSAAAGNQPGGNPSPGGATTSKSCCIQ
T10 sequence (P35913 1-853 isoform P35913-2): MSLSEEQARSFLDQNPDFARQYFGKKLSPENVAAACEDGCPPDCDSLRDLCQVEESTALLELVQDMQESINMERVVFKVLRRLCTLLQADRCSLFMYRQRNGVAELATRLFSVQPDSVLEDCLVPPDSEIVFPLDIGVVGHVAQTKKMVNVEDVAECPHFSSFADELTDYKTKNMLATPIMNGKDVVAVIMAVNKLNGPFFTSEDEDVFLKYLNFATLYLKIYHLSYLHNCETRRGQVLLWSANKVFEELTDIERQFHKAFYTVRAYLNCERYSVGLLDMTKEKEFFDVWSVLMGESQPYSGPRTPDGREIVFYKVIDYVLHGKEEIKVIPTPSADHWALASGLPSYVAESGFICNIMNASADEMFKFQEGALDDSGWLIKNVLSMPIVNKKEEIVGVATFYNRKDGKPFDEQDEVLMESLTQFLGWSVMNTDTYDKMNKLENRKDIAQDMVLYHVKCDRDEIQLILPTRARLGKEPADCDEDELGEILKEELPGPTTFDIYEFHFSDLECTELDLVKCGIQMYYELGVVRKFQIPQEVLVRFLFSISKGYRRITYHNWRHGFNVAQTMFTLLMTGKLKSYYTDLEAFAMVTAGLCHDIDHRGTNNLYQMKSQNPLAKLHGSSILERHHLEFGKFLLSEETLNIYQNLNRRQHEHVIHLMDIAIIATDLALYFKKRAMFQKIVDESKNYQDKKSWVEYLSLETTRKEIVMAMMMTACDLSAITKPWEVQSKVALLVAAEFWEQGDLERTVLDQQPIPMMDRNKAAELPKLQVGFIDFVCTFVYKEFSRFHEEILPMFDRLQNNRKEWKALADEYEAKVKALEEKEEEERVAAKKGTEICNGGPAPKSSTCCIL
T8 sequence (O00408 whole entry): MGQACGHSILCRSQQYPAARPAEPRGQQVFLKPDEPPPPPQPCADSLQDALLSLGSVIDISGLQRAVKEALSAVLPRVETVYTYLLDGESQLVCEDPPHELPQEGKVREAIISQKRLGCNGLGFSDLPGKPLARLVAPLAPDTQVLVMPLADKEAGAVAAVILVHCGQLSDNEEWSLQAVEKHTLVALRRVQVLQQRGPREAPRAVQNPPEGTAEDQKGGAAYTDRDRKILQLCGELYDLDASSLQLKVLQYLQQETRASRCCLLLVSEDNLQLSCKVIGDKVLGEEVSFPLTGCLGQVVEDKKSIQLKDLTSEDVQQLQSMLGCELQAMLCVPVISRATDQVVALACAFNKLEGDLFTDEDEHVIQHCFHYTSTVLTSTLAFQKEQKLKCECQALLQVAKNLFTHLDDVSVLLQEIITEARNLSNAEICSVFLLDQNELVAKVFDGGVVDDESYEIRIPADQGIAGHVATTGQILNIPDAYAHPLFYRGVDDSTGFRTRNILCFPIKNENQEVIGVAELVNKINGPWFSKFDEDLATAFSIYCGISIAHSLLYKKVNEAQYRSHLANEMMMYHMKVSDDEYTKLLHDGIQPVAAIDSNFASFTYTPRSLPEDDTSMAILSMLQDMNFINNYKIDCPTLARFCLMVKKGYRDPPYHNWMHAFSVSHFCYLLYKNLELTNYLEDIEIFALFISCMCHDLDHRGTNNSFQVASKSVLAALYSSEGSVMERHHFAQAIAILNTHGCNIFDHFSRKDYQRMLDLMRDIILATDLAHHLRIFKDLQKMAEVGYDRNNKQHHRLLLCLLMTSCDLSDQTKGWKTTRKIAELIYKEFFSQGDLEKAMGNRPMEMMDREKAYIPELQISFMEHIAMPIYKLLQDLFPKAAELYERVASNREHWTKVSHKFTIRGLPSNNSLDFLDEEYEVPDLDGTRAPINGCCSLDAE
T4 sequence (Q14432 641-1141): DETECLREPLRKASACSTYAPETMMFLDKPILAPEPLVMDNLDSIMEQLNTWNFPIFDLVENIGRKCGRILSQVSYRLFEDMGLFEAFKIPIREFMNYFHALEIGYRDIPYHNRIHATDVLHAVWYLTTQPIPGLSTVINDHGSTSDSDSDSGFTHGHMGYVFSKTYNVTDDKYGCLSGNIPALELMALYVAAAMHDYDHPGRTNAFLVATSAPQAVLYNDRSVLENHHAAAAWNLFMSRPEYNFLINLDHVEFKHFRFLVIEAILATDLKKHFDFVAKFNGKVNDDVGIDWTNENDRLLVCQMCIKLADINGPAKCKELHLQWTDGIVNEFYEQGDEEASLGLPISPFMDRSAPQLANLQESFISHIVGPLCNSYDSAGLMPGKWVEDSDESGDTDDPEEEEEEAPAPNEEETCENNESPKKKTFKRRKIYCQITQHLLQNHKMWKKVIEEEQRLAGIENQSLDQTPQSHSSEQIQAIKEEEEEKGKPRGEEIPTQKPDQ

In general, IC50 refers to the concentration needed to halve the response being measured. In the case of `CCCCn1c(=O)c2nnc(C3(C)CC3)n2c2ncccc21` [Example 1, 5-butyl-9-(1-methylcyclopropyl)pyrido[3,2-e][1,2,4]triazolo[4,3-a]pyrazin-6(5H)-one], the IC50 in assay [1] is 10.9 ± 2.6 nM; in [2], 16.3 ± 9.1 nM; in assay [3] it was 2.65 ± 0.9 nM; in [4], over 100000 nM; in [5], 11900 ± 1580 nM; in [6] it was 4170 nM. Also, the IC50 in [7] is over 10000 nM; in assay [8] it was over 10000 nM; in assay [9], 3130 nM; in assay [10] it was 2460 ± 247 nM; in [11] it was over 10000 nM; in assay [12], 9340 nM. This compound registered an IC50 in assay [13] of 389 ± 179 nM.
